Data reported in patent publication US9925189B2, “Heterocyclic receptor agonists for the treatment of diabetes and metabolic disorders” (CymaBay Therapeutics, Inc., priority 2006, dated 2018).

What follows are compounds tested against T1, IC-GPCR2 (Homo sapiens, UniProt Q8TDV5, S309L) (assay: Stimulation of cAMP in CHO cells stably expressing IC-GPCR2 (HTRF cAMP assay)). Settings: 0.5 h, 30 minutes, IC-GPCR2 stably expressing CHO cells, read-out: Activity at 10 uM (% change in FRET signal from DMSO control).
T1 construct: expressed in transfected cells
T1 sequence (Q8TDV5 1-335 S309L): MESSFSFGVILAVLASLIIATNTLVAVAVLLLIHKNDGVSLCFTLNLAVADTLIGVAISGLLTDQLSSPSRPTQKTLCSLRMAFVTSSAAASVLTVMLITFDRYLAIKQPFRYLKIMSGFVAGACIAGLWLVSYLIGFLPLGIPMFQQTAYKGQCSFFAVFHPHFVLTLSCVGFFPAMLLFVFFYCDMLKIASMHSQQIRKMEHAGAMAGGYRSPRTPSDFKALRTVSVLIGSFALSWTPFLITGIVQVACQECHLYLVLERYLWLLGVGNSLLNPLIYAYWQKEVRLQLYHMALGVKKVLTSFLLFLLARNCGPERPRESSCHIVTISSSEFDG
Assay type: cell-based
Protocol: This assay was developed using a stable cell line expressing IC-GPCR-2, generated as follows. IC-GPCR2 (SEQ ID NO:1) was cloned into Gateway pDEST 40vector (Invitrogen), using the Gateway cloning system (invitrogen) according to the manufacturer's instructions. A stable cell line was generated by transfecting a 10 cm plate of CHO cells (source) with 8 ug of this construct using Transit-CHO transfection kit (Mirus). CHO cells were plated the day prior to transfection at a density of 3,000,000 cells/plate. Clones were selected using the antibiotic G418 at 500 ug/ml. 23 clones were picked and assayed for the expression of the receptor by measuring changes in intracellular cAMP levels in response to an IC-GPCR2 agonist.
To measure cAMP activity in response to IC-GPCR2 agonist, the clones were plated in 96 well plates at 17500 cells per well. On the day after plating, cells were incubated with the IC-CPCR2 agonist at […] for 30 minutes in Ham's F12 Media (Gibco) with 0.04% DMSO. cAMP was measured using the cAMP dynamic kit from Cis Bio (Bedford, Mass.) according to the manufacturer's instructions. Briefly, cells were lysed, and cAMP levels determined by competitive immunoassay using D2 labeled cAMP, and europium cryptate tagged anti cAMP antibody. When in close proximity, the D2 and europium cryptate undergo fluorescence resonance energy transfer (FRET), which is measured as a fluorescence ratio (665 nm/620 nm). Unlabelled cAMP in the cell lysate competed with the D2 labeled cAMP for the europium crypate labeled antibody. The resulting decrease in FRET signal corresponded to intracellular cAMP levels. Fluorescence was read on a BMG Labtech PHERAstar, software version 1.50.
Compounds were dissolved in 100% DMSO to a concentration of […] to provide stock solutions. To determine activity against IC-GPCR2, compounds were incubated with IC-GPCR2 stably expressing cells (described above), at 6-8 concentrations ranging from 0.00003 to 10 micromolar, in 96 well plates, in 50 ul of Hams F12 media for 30 minutes. Cells were plated at 17500 cells per well 1 day before running the assay. All compounds were also screened against the parental CHO cells. cAMP was measured using the cAMP dynamic kit from Cis Bio (Bedford, Mass.), according to the manufacturer's instructions. Briefly, cells were lysed and cAMP levels determined by competitive immunoassay using D2 labeled cAMP, and europium cryptate tagged anti cAMP antibody. When in close proximity, the D2 and europium cryptate undergo fluorescence resonance energy transfer (FRET), which is measured as a fluorescence ratio (665 nm/620 nm). Unlabelled cAMP in the cell lysate competed with the D2 labeled cAMP for the europium crypate labeled antibody. The resulting decrease in FRET signal corresponded to intracellular cAMP levels.
Activities of compounds disclosed in Table 1 and Table 2 below are expressed as the % change in FRET signal from DMSO control. “*” no activity observed when tested at 10 micromolar but no higher concentrations were tested. NT indicates the compound was not tested at the indicated concentration.

| Compound | activation at 10 µM [%] |
| --- | --- |
| CC(C)(C)OC(=O)N1CCC(c2nc(COc3ccc(S(C)(=O)=O)cc3)cs2)CC1 [Example 1, 4-[4-(4-Methanesulfonyl-phenoxymethyl)-thiazol-2-yl]-piperidine-1-carboxylic acid tert-butyl ester] | 69 |
| CC(C)(C)OC(=O)N1CCC(c2nc(COc3ccc(-n4ccnc4)cc3)cs2)CC1 [Example 2, 4-[4-(4-Imidazol-1-yl-phenoxymethyl)-thiazol-2-yl]-piperidine-1-carboxylic acid tert-butyl ester] | 50 |
| CC(=O)Nc1ccc(OCc2csc(C3CCN(C(=O)OC(C)(C)C)CC3)n2)cc1 [Example 3, 4-[4-(4-Acetylamino-phenoxymethyl)-thiazol-2-yl]-piperidine-1-carboxylic acid tert-butyl ester] | 63 |
| CC(C)(C)OC(=O)N1CCC(c2nc(COc3ccc(-n4cncn4)cc3)cs2)CC1 [Example 5, 4-[4-(4-[1,2,4]Triazol-1-yl-phenoxymethyl)-thiazol-2-yl]-piperidine-1-carboxylic acid tert-butyl ester] | 60 |
| CC(C)(C)OC(=O)N1CCC(c2nc(COc3ccc(N4CCCC4=O)cc3)cs2)CC1 [Example 6, 4-{4-[4-(2-Oxo-pyrrolidin-1-yl)-phenoxymethyl]-thiazol-2-yl}-piperidine-1-carboxylic acid tert-butyl ester] | 68 |
| CC(C)(C)OC(=O)N1CCC(c2nc(COc3ccc(-n4cnnn4)cc3)cs2)CC1 [Example 7, 4-[4-(4-Tetrazol-1-yl-phenoxymethyl)-thiazol-2-yl]-piperidine-1-carboxylic acid tert-butyl ester] | 64 |
| CCc1cnc(N2CCC(c3nc(COc4ccc(S(N)(=O)=O)cc4)cs3)CC2)nc1 [Example 9, 4-{2-[1-(5-Ethyl-pyrimidin-2-yl)-piperidin-4-yl]-thiazol-4-ylmethoxy}-benzenesulfonamide] | 54 |

More lines, now with the values ahead:

| activation at 10 µM [%] | Compound |
| --- | --- |
| 81 | C[C@H]1CN(C(=O)OC(C)(C)C)CC[C@H]1c1nc(COc2ccc(-n3cnnn3)cc2)cs1 (stereo in doubt) [Example 144, 3-Methyl-4-[4-(4-tetrazol-1-yl-phenoxymethyl)-thiazol-2-yl]-piperidine-1-carboxylic acid tert-butyl ester] |
| 73 | C[C@H]1CN(C(=O)OC(C)(C)C)CC[C@H]1c1nc(COc2ccc(-n3cnnn3)cc2F)cs1 (stereo in doubt) [Example 145, 4-[4-(2-Fluoro-4-tetrazol-1-yl-phenoxymethyl)-thiazol-2-yl]-3-methyl-piperidine-1-carboxylic acid tert-butyl ester] |
| 78 | CCc1cnc(N2CC[C@@H](c3nc(COc4ccc(-n5cnnn5)cc4)cs3)[C@@H](C)C2)nc1 (stereo in doubt) [Example 199, 5-Ethyl-2-{3-methyl-4-[4-(4-tetrazol-1-yl-phenoxymethyl)-thiazol-2-yl]-piperidin-1-yl}-pyrimidine] |
| 82 | CCc1cnc(N2CC[C@@H](c3nc(COc4ccc(-n5cnnn5)cc4F)cs3)[C@@H](C)C2)nc1 (stereo in doubt) [Example 200, 5-Ethyl-2-{4-[4-(2-fluoro-4-tetrazol-1-yl-phenoxymethyl)-thiazol-2-yl]-3-methyl-piperidin-1-yl}-pyrimidine] |
| 87 | C[C@H]1CN(c2ncc(Cl)cn2)CC[C@H]1c1nc(COc2ccc(-n3cnnn3)cc2F)cs1 (stereo in doubt) [Example 201, 5-Chloro-2-{4-[4-(2-fluoro-4-tetrazol-1-yl-phenoxymethyl)-thiazol-2-yl]-3-methyl-piperidin-1-yl}-pyrimidine] |
| 83 | C[C@H]1CN(c2ncc(C(F)(F)F)cn2)CC[C@H]1c1nc(COc2ccc(-n3cnnn3)cc2F)cs1 (stereo in doubt) [Example 202, 2-{4-[4-(2-Fluoro-4-tetrazol-1-yl-phenoxymethyl)-thiazol-2-yl]-3-methyl-piperidin-1-yl}-5-trifluoromethyl-pyrimidine] |
| 34 | CCc1cnc(N2CCC(c3nc(COc4cccc(-n5cnnn5)c4)cs3)CC2)nc1 [Example 11] |
